Data on one molecule can be found in patent US7355004B2, “Protein lipase inhibitor for flour and dough” (Danisco A/S, priority 2002, dated 2008).

Assay [1] concerns purified Lipase 3 from Aspergillus niger. Nature of the assay: p-Nitrophenol-acetate assay, determination of Km for purified Lipase 3. It is filed as biochemical. How it is done:
(§1) Lipase activity was determined colorimetrically using p-nitrophenyl acetate as a substrate. In a microtiter plate was added 10 μl of sample or blank then 250 μl of substrate was added (0.5 mg p-nitrophenyl acetate/ml of 50 mM phosphate buffer, pH 6.5). The microtiterplate was incubated for 5 min. at 30° C. and the absorbance at 405 nm was then read in a microplate reader.
A 60 ml sample of Grindlipase (Danisco A/S) a ferment of Aspergillus niger, pH 5.5 was first filtered through GF/B filter and then through 0.45 μm filter. The filtered sample was then desalted on a Superdex G25 SP column (430 ml, 22×5 cm) equilibrated in 20 mM triethanolamin, pH 7.3. Flow 5 ml/min. The total volume after desalting was 150 ml.
The desalted sample was applied to a Source Q30 anion exchange column (100 ml, 5×5 cm) equilibrated in 20 mM triethanolamine, pH 7.3. The column was washed with equilibration buffer until a stable baseline was obtained. Lipase activity was then eluted with a 420 ml linear gradient from 0 to 0.35 M NaCl in equilibration buffer, flow […]. Fractions of 10 ml were collected. […]
To the pool from anion exchange was added ammonium sulfate to 1 M and the sample was applied to a Source Phenyl HIC column (20 ml, 10 x 2 cm) equilibrated in 20 mM sodium-acetate (pH 5.5), 1M (NH4)2SO4. […] Fractions 33-41 were analyzed by SDS-PAGE and fraction 40 and 41 contained pure lipase. […]

Another assay deals with commercial lipase #1646. Kind of assay: p-Nitrophenol-acetate assay, determination of Km for another commercial lipase (#1646). It is filed as biochemical. As to conditions: pH 6.5, 50 mM phosphate buffer, 30° C., 405 nm; substrate 0.1 to 0.75 mg/ml; fit to non-competitive kinetics not accepted. The method, then: as §1
Kinetic data were fitted to v=VmaxS/(Km+S) where Vmax is maximum velocity, S is substrate concentration, and Km is the concentration giving half maximal rate (Michaelis constant), using the EZ-FIT curve-fitting microcomputer program [Perrella, (1988) EZ-FIT: A practical curve-fitting microcomputer program for the analysis of enzyme kinetic data on IBM-PC compatible computers. Anal. Biochem. 174: 437-447]. To determine Ki the data were fitted to the formulas for non-competitive, competitive, un-competitive and the model showing the best fit (non-competitive) were used to determine Ki. The program uses the Nelder-Mead simplex optimization of initial guesses followed by Marquardt nonlinear regression algorithm for least squares optimization. Run's statistic is used to determine if the fitted curve goes through the data points or whether a systematic departure from the curve exists. The fitted parameter values and standard error are tested for significance by the Student t test.

SMILES strings stand for the structures.

As to `CC(=O)Oc1ccc([N+](=O)[O-])cc1` [p-nitrophenyl acetate], the “Km for p-nitrophenyl acetate” value stood at 0.67 ± 0.04 mg/mL in assay [1] (pH 6.5, 50 mM phosphate buffer, 30° C., 405 nm, four levels of lipase inhibitor, fit to non-competitive model) and 2.0 ± 0.6 mg/mL in the assay on commercial lipase #1646. In addition, in assay [1] (under the conditions in the assay), the “Km for lipase with respect to p-nitrophenyl acetate (in words)” value was “higher than the maximum solubility for p-nitrophenyl acetate”.
